Molecules are shown by their SMILES.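 Method: 48-hour compound exposure of cells in 96-well plates, five concentrations, linear interpolation of endpoints. Here, GI50 denotes the concentration required for 50% inhibition of growth. Definition used: TGI = concentration required for complete inhibition of growth.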 Some results are limits rather than exact numbers.

Holding throughout (assay): DTP human tumour cell line panel, 48 h
Assay [1] concerns MCF7 breast.
The test system of assay [2] is HCT-116 colon.
For assay [3], the system named is SNB-75 CNS.
Assay [4] relates to SK-MEL-28 melanoma.
Assay [5] has as its system DU-145 prostate.
Assay [6] concerns BT-549 breast.
Assay [7] has as its system COLO 205 colon.
In assay [8] the test system is SN12C renal.
Assay [9] has as its system UACC-257 melanoma.
For assay [10], the system named is SF-295 CNS.

As usually defined, the TGI is the concentration at which net growth stops. Read a high TGI as less potent growth arrest. On to `O=[N+]([O-])c1cccc(/C=N/NC2=CS(=O)(=O)C=C2)c1`, for which the TGI in assay [1], in assay [2], in [3], in [4], in assay [5] and in assay [6] was more than 100 µM in each case. For the same compound, the TGI in assay [7], in assay [8], in assay [9] and in assay [10] was more than 100 µM throughout.

By GI50 is commonly meant the concentration at which growth is held to half of that of the control. As to `O=C1CCc2c(sc3[nH]c(=S)n(-c4cc(C(F)(F)F)cc(C(F)(F)F)c4)c(=O)c23)C1`, the GI50 in assay [1] is 0.447 µM; in assay [2] it was 0.341 µM; in assay [3], 0.328 µM; in assay [4], 0.459 µM; in assay [5] it was 0.775 µM; in assay [6] it was 0.325 µM. For the same compound, the 50% growth inhibitory concentration (GI50) in assay [7] was 0.258 µM; in assay [8], 0.352 µM; in [9] it was 0.725 µM; in assay [10], 0.318 µM. Also, the TGI in assay [1] was 16.4 µM; in [2], 2.54 µM; in assay [3] it was 3.66 µM; in assay [4], 3.7 µM; in assay [5] it was more than 40 µM; in assay [6] it was 1.99 µM. Besides, the TGI was 0.668 µM in [7], 11.8 µM in assay [8], 4.6 µM in assay [9] and 1.1 µM in assay [10].

Turning to `COc1ccc2c(c1)[n+](=O)c(C(=O)c1cccs1)c(C(F)(F)F)n2[O-]`, the GI50 was 4.58 µM in [1]; 12.3 µM in assay [2]; 9.11 µM in assay [3]; 16.3 µM in assay [4]; 2.57 µM in [5]; 1.3 µM in [6]. Moreover, the GI50 in [7] is 7.49 µM; in assay [8], 2.18 µM; in assay [9] it was 8.66 µM; in assay [10], 2.89 µM. Besides, the TGI in assay [1] was 23.7 µM; in assay [2], more than 50 µM; in assay [3], more than 50 µM; in assay [4], more than 50 µM; in [5] it was 12.7 µM; in assay [6] it was 6.57 µM. Moreover, the TGI in [7] is more than 50 µM; in [8], 10.4 µM; in assay [9] it was 42 µM; in [10], 16.5 µM.

As for `O=S(=O)(O)O`, the TGI in assay [1] worked out at 1410 µM; in [2] it was 914 µM; in assay [3], 2290 µM; in [4] it was 1700 µM; in assay [5], 1620 µM; in assay [6] it was 2680 µM. Also, the TGI in assay [7] is 2210 µM; in [8] it was 1450 µM; in [9] it was 1990 µM; in assay [10] it was 2060 µM.

Consider `CO/N=C(\COc1ccc2c(=O)c3ccccc3oc2c1)c1ccccc1`, for which the GI50 in assay [1] is 37.9 µM; in assay [2] it was 68.6 µM; in [3] it was 68.8 µM; in [4], more than 100 µM; in [5], 22.4 µM; in assay [6], 26.8 µM. The GI50 in [7] is more than 100 µM; in [8], 35.1 µM; in assay [9], 39.1 µM; in [10], 28.7 µM. Besides, the TGI in assay [1] is more than 100 µM; in assay [2] it was more than 100 µM; in assay [3], more than 100 µM; in [4], more than 100 µM; in [5] it was 61.4 µM; in [6], 74.5 µM. For the same compound, the TGI in assay [7] was more than 100 µM; in assay [8], more than 100 µM; in assay [9], more than 100 µM; in assay [10], 78.1 µM.

Take `Fc1cccc(F)c1C1SCc2nc3cc(Cl)c(Cl)cc3n21` (stereo not given): the TGI in [1], in assay [2], in assay [3], in [4], in assay [5] and in assay [6] was more than 100 µM each time. Moreover, the TGI in assay [7], in [8], in [9] and in assay [10] was more than 100 µM in each case.

In the case of `O=c1c2c([nH]c3nccn13)CCC2`, the TGI in assay [1], in assay [2], in assay [3], in [4], in [5] and in assay [6] was more than 10 µM in each case. The concentration for total growth inhibition (TGI) in assay [7], in assay [8], in assay [9] and in assay [10] was more than 10 µM throughout.

`COc1ccc(C(=O)Cn2c(C(=O)c3ccccc3)nc3ccccc32)cc1`: the GI50 is 1.35 µM in [1]; 2.25 µM in assay [2]; 4.61 µM in assay [3]; 3.91 µM in [4]; 4.61 µM in assay [5]; 5.9 µM in [6]. In addition, the GI50 in assay [7] is 5.12 µM; in assay [8], more than 27.7 µM; in assay [9], more than 100 µM; in assay [10] it was 3.19 µM. Further, the TGI in assay [1], in [2], in assay [3], in [4], in assay [5] and in [6] was more than 100 µM in each case. For the same compound, the TGI in assay [7], in [8], in assay [9] and in assay [10] was more than 100 µM throughout.

Turning to `CN(C)c1ccc(Nc2c3ccccc3nc3ccccc23)cc1`, the GI50 was 0.471 µM in assay [1]; 0.38 µM in assay [2]; 0.99 µM in [3]; 1.36 µM in assay [4]; 1.05 µM in assay [5]; 1.71 µM in assay [6]. Also, the GI50 was 0.82 µM in assay [7], 1.03 µM in assay [8], 0.987 µM in assay [9] and 0.579 µM in [10]. The TGI in assay [1] is 3.44 µM; in [2] it was 1.7 µM; in assay [3], 4.09 µM; in [4] it was 2.84 µM; in [5] it was 2.94 µM; in assay [6] it was 8.19 µM. In addition, the concentration for total growth inhibition (TGI) in assay [7] is 2.16 µM; in assay [8] it was 6.76 µM; in assay [9] it was 2.65 µM; in assay [10] it was 2.75 µM.

For `CN1C(=O)c2ccc3ccccc3c2C1=O`, the concentration for total growth inhibition (TGI) in assay [1], in [2], in assay [3], in assay [4], in assay [5] and in assay [6] was more than 100 µM throughout. The TGI in [7], in [8], in assay [9] and in assay [10] was more than 100 µM in each case.

Take `N#CC(CCN1CCC(Nc2ccccc2)(c2nnnn2C2CCCCC2)CC1)(c1ccccc1)c1ccccc1`: the TGI in [1], in [2], in assay [3], in assay [4], in assay [5] and in [6] was more than 100 µM each time. Also, the TGI in assay [7], in [8], in assay [9] and in [10] was more than 100 µM each time.

As for `COc1ccc(-c2c(C)c(C(=O)O)nc(-c3ccc4c(O)c(OC)c5c(c4n3)=NC(C)(C)N=5)c2N)c(O)c1OC`, the TGI was more than 100 µM in assay [1]; 52.1 µM in assay [2]; 11.4 µM in assay [3]; 59.8 µM in assay [4]; more than 100 µM in assay [5]; 82.7 µM in assay [6]. Further, the TGI in assay [7] came to 77.1 µM; in [8] it was 41.7 µM; in assay [9], 98.4 µM; in [10], 38.6 µM.

`COC(=O)c1c2c(c(C)[n+]([O-])c1C)C(=O)C=C(NCc1ccccc1)C2=O`: the GI50 in [1] is 0.26 µM; in assay [2], 0.303 µM; in assay [3], 1.82 µM; in assay [4], 1.63 µM; in [5] it was 1.35 µM; in assay [6], 1.45 µM. Also, the GI50 is 0.274 µM in assay [7], 0.356 µM in assay [8], 0.261 µM in assay [9] and 1.11 µM in [10]. For the same compound, the TGI came out at 0.892 µM in assay [1]; 1.05 µM in assay [2]; 3.22 µM in assay [3]; 3.8 µM in assay [4]; 2.68 µM in [5]; 2.92 µM in [6]. Further, the TGI in assay [7] was determined as 0.776 µM; in [8], 1.39 µM; in [9], 0.962 µM; in assay [10], 2.35 µM.

Take `O=C(NCCN1CCOCC1)OCc1nc2nc(Cl)nc(N3CCOCC3)c2[nH]1`: the GI50 in assay [1] is 2.02 µM; in assay [2], 2.41 µM; in assay [3] it was 4.12 µM; in assay [4], more than 100 µM; in assay [5], 2.37 µM; in [6], 3.48 µM. Also, the GI50 was more than 100 µM in [7], 2.16 µM in assay [8], more than 100 µM in assay [9] and 5.77 µM in assay [10]. Besides, the TGI in assay [1] was more than 100 µM; in [2], more than 100 µM; in assay [3] it was more than 100 µM; in assay [4], more than 100 µM; in assay [5], 7.79 µM; in assay [6], more than 100 µM. For the same compound, the concentration for total growth inhibition (TGI) in assay [7], in assay [8], in [9] and in assay [10] was more than 100 µM throughout.

(Values after PubChem BioAssay (NCI).)
